Series [1] has as its system primary cultures of mouse cortical neurons. In words: Mean phase value on cell bodies monitored over time by digital holographic microscopy (DHM) after glutamate-induced excitotoxic stimulation. Format: cell-based. The source says: The particular implementation is a transmission DHM setup making possible to monitor cells in time through phase measurement. The sketch of the optical arrangement of the measurement setup is shown in FIG. 3, where the light emitted by a light source is split into two beams and recombined to generate an interference producing a hologram on the camera. […] Phase images are reconstructed by a numerical method for off-axis digital hologram reconstruction.
In the different experiments described below, the optical property, employed for cell death detection is the mean phase value measured on cell bodies and monitored during time. The phase value is intrinsically a relative measurement that has to be compared with a phase reference, usually taken as the phase shift induced by the perfusion medium. Physically, the phase value φ can thus be related to an optical path length (OPL) as
[formula] where the indices i and m correspond respectively to the intracellular content of the cell and to the perfusion medium, h is the height of the cell at position (x, y) and n is the mean refractive index (RI) along the optical axis. The phase is measured by calculating a spatial averaging of the phase value on a constant surface contained in the cell body, to which a reference phase value measured on a zone of the field of view containing no biological material has been subtracted.
The meaning of the phase measured with an interferometric method in this context is dependent on the height of the cell and on its intracellular RI. Therefore, the phase is linked both to the cell volume phenotype (through cell height), and to the intracellular content of cells phenotype (through RI), and thus indirectly to the osmotic regulation of the cell. The phase signal is therefore an indicator of cell volume regulation through both parameters, and can be indirectly linked to homeostasis through osmotic phenomena.
This particular study is performed on primary cultures of mouse cortical neurons, mounted on coverslips for optical measurement. Before experiment, coverslips are mounted on a perfusion chamber used to apply the different solutions to the cells, which are immersed in a HEPES-buffered standard physiological perfusion medium. As an example of application of cell death detection through volume regulation, we present in the following a detection of neuronal death induced through glutamate-induced excitotoxic stimulation, ultimately leading to cell death. The glutamate is a neurotransmitter activating neuronal receptors, leading under strong exposure to high level of intracellular calcium concentration, which can lead to death pathway triggering if not regulated properly.
(§1) In order to validate the measurement principle proposed in this application, the cell viability is also tested with trypan blue 0.4% reagent, to enable comparative measurements. The dye relies on probing the cell membrane integrity, which becomes permeable to the color compound at a certain level after cell death mechanisms started. After reagent wash-out, the cell nuclei of non-viable cells are consequently stained in blue, as the dye fixes on DNA material. Excitotoxic effects were studied during the experiments, by applying glutamate pulses at different concentration to the cells. The excitation solutions were prepared with concentrations ranging between 25 μM and 100 μM, depending on the type of experiment. Perfusion changes were performed by washing the chamber with a micropipette, making it possible to replace the perfusion medium through typically two washes of the medium.
The mean phase value measured on four cell bodies is shown in FIG. 4(a), where the reagent has been applied several times on the culture with an interval of approximately one hour. […]

For series [2] the test system is unchanged. In words: Cell viability tested with trypan blue 0.4% reagent after glutamate stimulation. Format: cell-based. As to conditions: for trypan blue staining / time at which nucleus was stained by trypan blue (cell death): 90 seconds; for time at which cell death was confirmed with trypan blue: 120 seconds. Here is the method: as §1
In order to enable color measurement for cell viability assessment with the reagent, a flip mirror is inserted after the MO, so that the intensity image could also be recorded in focus with a color camera. When performing trypan blue staining, the illumination is changed to employ an incoherent halogen white light source to enable color measurement; this implies that during dye probing, no DHM measurement is performed, yielding part of unmeasured phase signal during time monitoring. Image merging between the two measurement techniques could be done through calibration of the system by imaging an object whose shape is well-known.
Brightfield color images of the culture, enabling the assessment through the trypan blue dye as a control experiment, are presented in FIGS. 4(b-c), respectively at t=30 min before the excitotoxic stimulation and t=290 min, where non viable cells are identified by the blue staining.

[3] abbreviates: glutamate 50 μM during 90 seconds, cell 4.

Entries after “also recorded” stand apart in the source; their conditions may differ.

For `N[C@@H](CCC(=O)O)C(=O)O` [glutamate], in series [1] (setting [3]), the phase variations entry was “below 10 °”. Further, the “time to retrieve the same mean phase value” in series [1] (setting [3]) is reported as “approximately 10 minutes”. The phase signal drop entry in series [1] (glutamate 50 μM during 90 seconds, three of four cells (cells 1 to 3)) is “approximately 40 °”. The phase response result in series [1] (glutamate pulse 25 μM, 90 seconds, n=10 cells) was “reversible responses in phase; also recorded: only recovery curves”; in series [1] (glutamate pulse 50 μM, 90 s), “mixed responses between recovery and death”; in series [1] (glutamate pulse 50 μM, 120 s) it was “irreversible signals”. The trypan blue staining entry in series [2] (glutamate 25 μM, up to 4 hours and 30 minutes after stimulation) was “all cells being unstained”; in series [2] (glutamate 50 μM, cell 4, several hours after exposure), “remained unstained with a healthy morphology”. The “time at which nucleus was stained by trypan blue (cell death)” value in series [2] (glutamate 50 μM, cell 1) worked out at 116 min; in series [2] (glutamate 50 μM, cell 2), 207 min; in series [2] (glutamate 50 μM, cell 3) it was 252 min. Also, the “time at which cell death was confirmed with trypan blue” value in series [2] (glutamate 50 μM, cell 3) is 385 min; in series [2] (glutamate 50 μM, cells 1 and 2), 323 min.

The values are drawn from patent US10495627B2, “Apparatus and method for early diagnosis of cell death” (LYNCEE TEC S.A., priority 2010, dated 2019).
